The text below walks through data of patent US20060223884A1, “Compounds and compositions for use in the prevention and treatment of obesity and related syndromes” (priority 2005, published 2006).

Where two headings read alike, the source gives them in different places.

The nature of data set [1]: Prevention of weight gain in Wistar rats fed a high fat, high sucrose diet (Example 10). The data set is classed as in vivo. Conditions: Wistar rats on HFHS diet, 100 mg/kg twice daily oral. The text has this: The aim of this study was to evaluate the effect of chronic administration of 4-hydroxyisoleucine (4-OH, Compound 14a) on food consumption, tissue weight, and body weight gain of normal Wistar rats fed a high fat, high sucrose diet (HFHS).
The animals were acclimated for 1 week and fed standard chow prior to the commencement of treatment, then for the 28 days of the treatment the animals were fed a high fat, high sucrose diet (HFHS). A total of 30 animals were used in the study. The animals were distributed into 3 groups each composed of 10 animals: 1 group fed HFHS with treatment, 1 untreated control group fed standard chow, and 1 untreated group fed HFHS. Animals were housed separately and food consumption was monitored daily.
For the four weeks of treatment, the test compounds were dissolved in reverse osmosis water. 4-hydroxyisoleucine (4-OH) was aliquoted and kept at 4° C. Treated animals received twice daily oral administration of 4-OH at 100 mg/kg per dose. Control animals received water twice daily.

The nature of data set [2]: Body weight of DIO mice, 4-hydroxyisoleucine and metformin alone and in combination (Example 6). The data set is classed as in vivo, C57BU6 mice. Here is the method: C57BU6 mice were received at 7-8 weeks of age and fed a high fat diet (60% of calories from fat) for 8 weeks. Fasted glycemia was checked and animals with readings between 200 and 220 mg/dL were included in the study. The animals were randomized based on their body weights and glycemia values into control and treatment groups (n=8). […] The control group received vehicle (water) alone. The animals were treated for 21 days. Body weight of the mice was measured on the first day of treatment and on days 3, 7, 10, 14, 17, and 21. All data are expressed as mean±SEM.

A short description of data set [3]: Oral Glucose Tolerance Test (OGTT) in DIO mice, 4-hydroxyisoleucine and Exendin-4 alone or in combination (Example 5). The data set is classed as in vivo, C57BI/6 mice. To be noted: single agent, 4-OH 50 mg/kg or Exendin-4 0.01 mg/kg, after 7, 14 and 21 days of treatment. The protocol:
Glycemic response was monitored by an Oral Glucose Tolerance Test (OGTT) performed on days 0, 7, 14, and 21 of treatment.
A total of 56 animals were used in the study. The animals were distributed into 7 groups (5 treated, 1 normal diet control, and 1 high fat diet control group). Each group was composed of 8 animals. […] For the three weeks of treatment, the test agents were dissolved in sterile saline for injection (USP). 4-Hydroxyisoleucine was kept at 4° C. (administration to groups 3, 4, and 7) while a frozen aliquot of Exendin-4 was thawed each dosing day for administration to groups 5, 6, and 7. Control animals received sterile saline, twice daily (groups 1 and 2). […] Animals from groups 5 and 6 received sterile saline as the AM treatment, while the PM treatment consisted of 0.05 and 0.01 mg/kg of Exendin-4, respectively. For Group 7, the AM treatment consisted of 50 mg/kg 4-OH only, while the PM treatment consisted of 0.01 mg/kg of Exendin-4+50 mg/kg of 4-OH. All groups were treated by subcutaneous injection.
On days 0, 7, 14, and 21, animals fasted for approximately 5 hours were challenged with an Oral Glucose Tolerance Test (OGTT) at 5 hours post-AM test agent administration. Whole blood glucose levels were monitored using a hand-held glucometer prior to OGTT and for up to 2 hours post-glucose challenge.

Data set [4] is classed as in vivo. Conditions: ob/ob mice. The text has this: The objective of this study was to evaluate the effect of chronic administration of 4-hydroxyisoleucine (4-OH, compound 14a) on food consumption and body weight gain in a genetic model of obesity, the ob/ob mouse. Body weight gain and food consumption were monitored for 1 week prior to the commencement of treatment, and then for the 56 days of treatment.
A total of 16 animals were used in the study. The animals were distributed into 2 groups (1 treated, 1 control group, all on standard chow). Each group was composed of 8 animals. The mice were randomized according to body weight values.
For the eight weeks of treatment, the test agent was dissolved in reverse osmosis water. 4-hydroxyisoleucine was aliquoted and kept at 4° C. Control animals received reverse osmosis water twice daily (group 1). Mice from group 2 were treated twice daily with 4-OH at 100 mg/kg. All groups were treated by oral gavage. Treatment commenced on Day 0 and ended on Day 56 (FIGS. 16A and 16B). Food consumption was measured daily and averaged on a weekly basis beginning one week before the start of treatment as shown in FIG. 16B.

For data set [5] the following is noted: DIO mice. The text has this:
The objective of this study was to evaluate the effect of chronic administration of 4-hydroxyisoleucine (4-OH, compound 14a) and Rosiglitazone, administered alone or in combination, on food consumption and body weight gain of DIO-mice. Both parameters were monitored for 1 week prior to the commencement of treatment, then for the 28 days of treatment and for an additional 7 days post-treatment.
A total of 72 animals were used in the study. The animals were distributed into 6 groups (5 treated, 1 control group, all on high fat diet). Each group was composed of 12 animals. The mice were randomized according to body weight and basal glycemia values following a 5±0.5 hour fasting period.
For the four weeks of treatment, the test articles were dissolved in reverse osmosis water. 4-Hydroxyisoleucine was aliquoted and kept at 4° C. (administration to groups 2, 3, and 6), while Rosiglitazone was freshly prepared daily and kept at 4° C. between the AM and PM administration to groups 4, 5, and 6. Control animals received reverse osmosis water twice daily (group 1). Mice from groups 2 and 3 were treated twice daily with 4-OH at 50 and 100 mg/kg, respectively. Animals from groups 4 and 5 received 1.5 and 5 mg/kg of Rosiglitazone, respectively. […] All groups were treated by oral gavage. Treatment commenced on Day 0 and ended on Day 28 (FIGS. 17A and 17C).
Food consumption was measured and averaged on a weekly basis beginning one week before the start of treatment as shown in FIGS. 17B and 17D as week −1. Similarly, food consumption was monitored for one week after treatment was stopped and is shown as week 5 in FIGS. 17B and 17D. In FIG. 17B, the food consumption over time for various treatment groups is illustrated by the bar graph.

Where [6] appears, read: 4-OH 50 or 100 mg/kg twice daily.

Turning to `C[C@@H]([C@H](C)O)[C@H](N)C(=O)O` [compound 14a, (2S,3R,4S)-4-Hydroxyisoleucine], in data set [1] (28 days), the “epididymal and peri-renal adipose tissue” value was “reduction of epididymal and peri-renal adipose tissue”; the tolerability of treatment entry is recorded as “well tolerated”; the weight gain result is “Moderation of weight gain”. For the same molecule, in data set [1] (28 days (data not shown)), the “muscle, brown fat, and organ weight” value was “not affected”. For the same molecule, the food consumption result in data set [1] (28 days, could not account for the differences in weight gain) was “reduction in food consumption”. Further, the “body weight as compared to vehicle-treated mice” value in data set [2] (DIO mice, 100 mg/kg twice daily oral, 21 days, only 4-OH significant (p<0.01 4-OH, p=0.27 metformin)) was “reduction of their body weight”. Besides, in data set [2] (DIO mice, 4-OH 50 mg/kg or metformin 25 mg/kg twice daily oral, 21 days), the “body weight compared to control DIO mice, given alone” value is listed as “no significant effect on body weight”. The “efficacy in reducing body weight relative to metformin” value in data set [2] (DIO mouse model, conclusion of the study) is given as “as effective as mefformin”. For the same molecule, in data set [3], the “glycemic levels following OGTT challenge” value is reported as “consistently effective at reducing glycemic levels”. In addition, the “weight gain during the course of treatment” value in data set [4] (100 mg/kg twice daily oral) is reported as “moderation of weight gain”. In addition, the “weight gain as compared to the control group” value in data set [4] (100 mg/kg twice daily oral, Day 21 to Day 56) is “significantly reduced”. The tolerability of treatment result in data set [4] (100 mg/kg twice daily, oral gavage, 56 days) was “well tolerated”. Also, the food consumption entry in data set [4] (first three weeks of treatment but not later on) is recorded as “slight decrease in food consumption”. Moreover, the “weight gain induced by Rosiglitazone” value in data set [5] (4-OH 50 mg/kg co-administered with Rosiglitazone 1.5 mg/kg) was “able to modulate the weight gain induced by Rosiglitazone”. In addition, the “food consumption (FIG. 17D)” value in data set [5] (4-OH 50 mg/kg, Rosiglitazone 1.5 mg/kg, or the two co-administered) was “reduction in food consumption during the first week, but not after”. In addition, the weight gain result in data set [5] (4-OH 100 mg/kg twice daily oral, 28 days) is “Moderation of weight gain”. Besides, in data set [5] (setting [6]), the “food consumption, first week of treatment (FIG. 17B)” value was “decreased” and the “food consumption, remainder of the treatment phase (FIG. 17B)” value was “returned to pre-treatment levels”.
